This passage reports Ki results from US6653309B1, “Inhibitors of IMPDH enzyme technical field of the invention” (Vertex Pharmaceuticals Incorporated, priority 1999, dated 2003).

In the experiment the target is IMPDH human type II (Homo sapiens, UniProt P12268). Kind of experiment: IMPDH Activity Inhibition Assay. The conditions noted are these: spectrophotometric NADH formation at 340 nm, 37° C., tight-binding equation of Henderson. The experiment is classed as biochemical. The protocol: IMP dehydrogenase activity was assayed following an adaptation of the method first reported by Magasanik. [B. Magasanik et al., J. Biod. Chem., 226, p. 339 (1957), the disclosure of which is herein incorporated by reference]. Enzyme activity was measured spectrophotometrically, by monitoring the increase in absorbance at 340 nm due to the formation of NADH (ε340 is 6220 M^−1 cm^−1). The reaction mixture contained 0.1 M Tris pH 8.0, 0.1 M KCl, 3 mM EDTA, 2 mM DTT, […] and enzyme (IMPDH human type II) at a concentration of 15 to 50 nM. This solution is incubated at 37° C. for 10 minutes. The reaction is started by adding NAD to a final concentration of […] and the initial rate is measured by following the linear increase in absorbance at 340 nm for 10 minutes. For reading in a standard spectrophotometer (path length 1 cm) the final volume in the cuvette is 1.0 ml. The assay has also been adapted to a 96 well microtiter plate format; in this case the concentrations of all the reagents remain the same and the final volume is decreased to 200 μl.
For the analysis of inhibitors, the compound in question is dissolved in DMSO to a final concentration of 20 mM and added to the initial assay mixture for preincubation with the enzyme at a final volume of 2-5% (v/v). The reaction is started by the addition of NAD, and the initial rates measured as above. Ki determinations are made by measuring the initial, velocities in the presence of varying amounts of inhibitor and fitting the data using the tight-binding equation of Henderson (Henderson, P. J. F. (1972) Biochem. J. 127, 321].
The molecule `O=C(Nc1ccc(OC(F)(F)F)cc1)c1cc2ccccc2cc1O` [Compound 136] returned an inhibition constant Ki of 10 to 20 µM.
Under `COc1ccccc1NC(=O)c1cc2ccccc2cc1NC(=O)C(F)(F)F` [Compound 137] stands 10 to 20 µM; under `COc1ccccc1C(=O)Nc1cc2ccccc2cc1OC(=O)c1ccccc1OC` [Compound 138], below 10 µM; under `COc1ccccc1C(=O)Nc1cc2ccccc2cc1O` [Compound 139], below 10 µM.
Under `C=CCOc1cc2ccc(Br)cc2cc1C(=O)Nc1ccccc1OC` [Compound 140] stands below 10 µM; under `COc1ccccc1NC(=O)c1cc2cc(Br)ccc2cc1OCc1ccccc1` [Compound 141], below 10 µM; under `COc1ccccc1NC(=O)c1cc2ccccc2cc1N` [Compound 142], 10 to 20 µM.
Regarding `O=C(Nc1cccc(OC(F)(F)F)c1)c1ccc2ccccc2c1` [Compound 143], the Ki is below 10 µM.
Under `N#Cc1ccccc1NC(=O)c1cc2ccccc2cc1O` [Compound 144] stands 10 to 20 µM; under `N#Cc1cccc(NC(=O)c2cc3ccccc3cc2O)c1` [Compound 145], 10 to 20 µM; under `COc1ccccc1NC(=O)c1ccc2ccccc2c1O` [Compound 146], 10 to 20 µM.
Regarding `COc1ccccc1NC(=O)c1ccccc1O` [Compound 147], the Ki was below 10 µM.
Take `CCCCC(=O)Oc1cc2ccccc2cc1C(=O)Nc1ccccc1OC` [Compound 148]: the Ki was in the range of 10 to 20 µM.
With `COc1ccccc1N(C)C(=O)c1cc2cc(Br)ccc2cc1O` [Compound 149], the inhibitory constant (Ki) fell in the range of 10 to 20 µM.
The value for `COc1ccc(C(=O)Nc2ccccc2OC)c(O)c1` [Compound 150] was 10 to 20 µM; that for `COc1ccccc1N(C)Cc1cc2cc(Br)ccc2cc1O` [Compound 151] was below 10 µM; that for `COc1ccccc1NC(=O)c1cccc(-c2ccccc2)c1O` [Compound 152] was 10 to 20 µM.
The value for `CCCCC(=O)Oc1cc2ccc(Br)cc2cc1C(=O)Nc1ccccc1OC` [Compound 153] was below 10 µM.
The value for `COc1ccc(-c2ccccc2)cc1NC(=O)c1cc2ccccc2cc1O` [Compound 154] was 10 to 20 µM.
Turning to `O=C(Nc1ccccc1Cl)c1cc2ccccc2cc1O` [Compound 155], the inhibition constant (Ki) is 10 to 20 µM.
The value for `O=C(Nc1cccc(Cl)c1)c1cc2ccccc2cc1O` [Compound 156] was 10 to 20 µM; that for `COc1ccccc1NC(=O)c1cccc(OC)c1O` [Compound 157] was 10 to 20 µM.
The value for `CCS(=O)(=O)c1ccc(OC)c(NC(=O)c2cc3ccccc3cc2O)c1` [Compound 159] was 10 to 20 µM.
The value for `COc1ccc(S(=O)(=O)C(F)F)cc1NC(=O)c1cc2ccccc2cc1O` [Compound 160] was 10 to 20 µM; that for `O=C(Nc1ccc(Cl)cc1)c1cc2ccccc2cc1O` [Compound 161] was below 10 µM.
Regarding `O=C(Nc1ccccc1F)c1cc2ccccc2cc1O` [Compound 162], the Ki fell in the range of 10 to 20 µM.
The molecule `O=C(Nc1cccc(F)c1)c1cc2ccccc2cc1O` [Compound 163] yielded an inhibitory constant (Ki) of 10 to 20 µM.
As for `CCC(C)c1ccc(OC)c(NC(=O)c2cc3ccccc3cc2O)c1` (centres unmarked) [Compound 164], the inhibition constant (Ki) is below 10 µM.
The value for `COc1ccc(C(N)=O)cc1NC(=O)c1cc2ccccc2cc1O` [Compound 165] was 10 to 20 µM; that for `O=C(Nc1ccc(F)cc1)c1cc2ccccc2cc1O` [Compound 166] was 10 to 20 µM.
The value for `CCOc1ccccc1NC(=O)c1cc2ccccc2cc1O` [Compound 167] was 10 to 20 µM; that for `CCOc1cccc(NC(=O)c2cc3ccccc3cc2O)c1` [Compound 168] was 10 to 20 µM.
`CSc1ccccc1NC(=O)c1cc2ccccc2cc1O` [Compound 169] gave a Ki below 10 µM.
Molecule `COc1cc(NC(=O)c2cc3ccccc3cc2O)c(OC)cc1Cl` [Compound 170] yielded an inhibition constant (Ki) below 10 µM.
Under `COc1cc(OC)c(NC(=O)c2cc3ccccc3cc2O)cc1Cl` [Compound 171] stands 10 to 20 µM; under `COc1cc2c(cc1NC(=O)c1cc3ccccc3cc1O)oc1ccccc12` [Compound 172], below 10 µM.
Under `CSc1cccc(NC(=O)c2cc3ccccc3cc2O)c1` [Compound 173] stands 10 to 20 µM; under `CSc1ccc(NC(=O)c2cc3ccccc3cc2O)cc1` [Compound 175], below 10 µM.
The value for `COc1ccc(C(C)(C)C)cc1NC(=O)c1cc2ccccc2cc1O` [Compound 177] was 10 to 20 µM.
For the molecule `COc1ccc(C)cc1NC(=O)c1cc2ccccc2cc1O` [Compound 178], the inhibition constant (Ki) was below 10 µM.
Under `COc1ccc(OC)c(NC(=O)c2cc3ccccc3cc2O)c1` [Compound 179] stands 10 to 20 µM; under `COc1ccc(C(F)(F)F)cc1NC(=O)c1cc2ccccc2cc1O` [Compound 180], 10 to 20 µM; under `COc1cc(Cl)c(C)cc1NC(=O)c1cc2ccccc2cc1O` [Compound 181], below 10 µM.
Under `O=C(Nc1ccccc1Oc1ccccc1)c1cc2ccccc2cc1O` [Compound 183] stands below 10 µM.
Molecule `COc1cccc(NC(=O)c2cc3ccccc3cc2O)c1OC` [Compound 184] gave a Ki of 10 to 20 µM.
The value for `O=C(Nc1ccc(Oc2ccccc2)cc1)c1cc2ccccc2cc1O` [Compound 185] was below 10 µM.
Under `COc1ccc(NC(=O)c2cc3ccccc3cc2O)c(OC)c1` [Compound 186] stands 10 to 20 µM; under `COc1ccc(NC(=O)c2cc3ccccc3cc2O)cc1OC` [Compound 187], 10 to 20 µM.
For `COc1cc(NC(=O)c2cc3ccccc3cc2O)cc(OC)c1` [Compound 188], the inhibitory constant (Ki) was 10 to 20 µM.
Under `O=C(Nc1ccccc1O)c1cc2ccccc2cc1O` [Compound 190] stands above 20 µM; under `COc1ccc(C)cc1NC(=O)c1ccc2ccccc2c1O` [Compound 191], above 20 µM.
As to `O=C(Nc1ccccc1O)c1ccc2ccccc2c1O` [Compound 192], the inhibition constant Ki was above 20 µM.
Under `O=C(Nc1ccccc1Oc1ccccc1)c1ccc2ccccc2c1O` [Compound 193] stands 10 to 20 µM; under `COc1ccc(C)cc1NC(=O)c1ccccc1OC` [Compound 194], above 20 µM.
The value for `COc1ccccc1C(=O)Nc1ccccc1O` [Compound 195] was 10 to 20 µM; that for `COc1ccccc1C(=O)Nc1ccccc1Oc1ccccc1` [Compound 196] was 10 to 20 µM.
Under `COc1ccccc1NC(=O)c1ccc(C)cc1O` [Compound 197] stands above 20 µM; under `COc1ccc(C)cc1NC(=O)c1ccc(C)cc1O` [Compound 198], above 20 µM.
`Cc1ccc(C(=O)Nc2ccccc2O)c(O)c1` [Compound 199] had a Ki above 20 µM.
The value for `Cc1ccc(C(=O)Nc2ccccc2Oc2ccccc2)c(O)c1` [Compound 200] was 10 to 20 µM; that for `COc1ccccc1NC(=O)c1cc(Br)ccc1O` [Compound 201] was 10 to 20 µM.
Under `COc1ccc(C)cc1NC(=O)c1cc(Br)ccc1O` [Compound 202] stands above 20 µM; under `O=C(Nc1ccccc1O)c1cc(Br)ccc1O` [Compound 203], above 20 µM; under `O=C(Nc1ccccc1Oc1ccccc1)c1cc(Br)ccc1O` [Compound 204], above 20 µM.
Under `O=[N+]([O-])c1cccc(S(=O)(=O)Nc2ccc(-c3cnco3)cc2)c1` [Compound 300] stands 10 to 20 µM.
